Experimental data: the NIST ThermoML archive (doi:10.1016/j.fluid.2019.05.003)

Assay: xn = mol fraction of the nth substance listed
Details: 101 kPa, Liquid; for viscosity: Falling or rolling sphere viscometry; for mass density: Vibrating tube method

CC[N+](C)(C)CCO.[Br-] [ethyl(2-hydroxyethyl)dimethylammonium bromide] + O
Details | mass density [kg/m3] | viscosity [mPa·s]
298.15 K, x1 = 0.026 | 1061.1 | 1.249
298.15 K, x1 = 0.049 | 1103.4 | 1.613
298.15 K, x1 = 0.068 | 1132.6 | 2.066
298.15 K, x1 = 0.086 | 1155.4 | 2.594
298.15 K, x1 = 0.119 | 1190.7 | 4.028
298.15 K, x1 = 0.156 | 1220 | 6.186
298.15 K, x1 = 0.185 | 1238.4 | 9.494
298.15 K, x1 = 0.214 | 1254.1 | 13
298.15 K, x1 = 0.257 | 1273.4 | 20.35
298.15 K, x1 = 0.319 | 1293.9 | 35.33
303.15 K, x1 = 0.026 | 1059.2 | 1.117
303.15 K, x1 = 0.049 | 1101.3 | 1.463
303.15 K, x1 = 0.068 | 1130.3 | 1.836
303.15 K, x1 = 0.086 | 1153 | 2.292
303.15 K, x1 = 0.119 | 1188.1 | 3.487
303.15 K, x1 = 0.156 | 1217.2 | 5.347
303.15 K, x1 = 0.185 | 1235.6 | 8.22
303.15 K, x1 = 0.214 | 1251.3 | 11.13
303.15 K, x1 = 0.257 | 1270.5 | 17.24
303.15 K, x1 = 0.319 | 1290.9 | 29.38
308.15 K, x1 = 0.026 | 1057.2 | 1.017
308.15 K, x1 = 0.049 | 1099.1 | 1.296
308.15 K, x1 = 0.068 | 1127.9 | 1.645
308.15 K, x1 = 0.086 | 1150.4 | 2.046
308.15 K, x1 = 0.119 | 1185.4 | 3.095
308.15 K, x1 = 0.156 | 1214.5 | 4.593
308.15 K, x1 = 0.185 | 1232.8 | 7.127
308.15 K, x1 = 0.214 | 1248.4 | 9.581
308.15 K, x1 = 0.257 | 1267.6 | 14.63
308.15 K, x1 = 0.319 | 1288 | 24.38
313.15 K, x1 = 0.026 | 1055.1 | 0.917
313.15 K, x1 = 0.049 | 1096.7 | 1.171
313.15 K, x1 = 0.068 | 1125.4 | 1.484
313.15 K, x1 = 0.086 | 1147.9 | 1.839
313.15 K, x1 = 0.119 | 1182.7 | 2.771
313.15 K, x1 = 0.156 | 1211.7 | 4.112
313.15 K, x1 = 0.185 | 1229.9 | 6.185
313.15 K, x1 = 0.214 | 1245.5 | 8.263
313.15 K, x1 = 0.257 | 1264.6 | 12.43
313.15 K, x1 = 0.319 | 1285 | 20.45
318.15 K, x1 = 0.026 | 1052.6 | 0.841
318.15 K, x1 = 0.049 | 1093.9 | 1.068
318.15 K, x1 = 0.068 | 1122.8 | 1.35
318.15 K, x1 = 0.086 | 1145.2 | 1.663
318.15 K, x1 = 0.119 | 1179.9 | 2.486
318.15 K, x1 = 0.156 | 1208.8 | 3.655
318.15 K, x1 = 0.185 | 1227 | 5.378
318.15 K, x1 = 0.214 | 1242.5 | 7.16
318.15 K, x1 = 0.257 | 1261.7 | 10.68
318.15 K, x1 = 0.319 | 1282 | 17.3
323.15 K, x1 = 0.026 | 1050.7 | 0.775
323.15 K, x1 = 0.049 | 1091.4 | 0.98
323.15 K, x1 = 0.068 | 1120.1 | 1.234
323.15 K, x1 = 0.086 | 1142.5 | 1.513
323.15 K, x1 = 0.119 | 1177.1 | 2.242
323.15 K, x1 = 0.156 | 1205.9 | 3.307
323.15 K, x1 = 0.185 | 1224.1 | 4.688
323.15 K, x1 = 0.214 | 1239.6 | 6.248
323.15 K, x1 = 0.257 | 1258.7 | 9.249
323.15 K, x1 = 0.319 | 1279 | 14.91
328.15 K, x1 = 0.026 | 1048.6 | 0.72
328.15 K, x1 = 0.049 | 1088.9 | 0.902
328.15 K, x1 = 0.068 | 1117.2 | 1.132
328.15 K, x1 = 0.086 | 1139.7 | 1.382
328.15 K, x1 = 0.119 | 1174.2 | 2.034
328.15 K, x1 = 0.156 | 1203 | 2.962
328.15 K, x1 = 0.185 | 1221.2 | 4.143
328.15 K, x1 = 0.214 | 1236.6 | 5.498
328.15 K, x1 = 0.257 | 1255.7 | 8.108
328.15 K, x1 = 0.319 | 1276 | 12.84
333.15 K, x1 = 0.026 | 1046.5 | 0.669
333.15 K, x1 = 0.049 | 1085.9 | 0.837
333.15 K, x1 = 0.068 | 1114.5 | 1.046
333.15 K, x1 = 0.086 | 1136.8 | 1.273
333.15 K, x1 = 0.119 | 1171.2 | 1.857
333.15 K, x1 = 0.156 | 1200.1 | 2.679
333.15 K, x1 = 0.185 | 1218.2 | 3.576
333.15 K, x1 = 0.214 | 1233.6 | 4.864
333.15 K, x1 = 0.257 | 1252.7 | 7.142
333.15 K, x1 = 0.319 | 1273 | 11.49
338.15 K, x1 = 0.026 | 1044.3 | 0.632
338.15 K, x1 = 0.049 | 1083.9 | 0.786
338.15 K, x1 = 0.068 | 1112.2 | 0.965
338.15 K, x1 = 0.086 | 1134.1 | 1.174
338.15 K, x1 = 0.119 | 1168.1 | 1.707
338.15 K, x1 = 0.156 | 1197.1 | 2.439
338.15 K, x1 = 0.185 | 1215.2 | 3.122
338.15 K, x1 = 0.214 | 1230.6 | 4.315
338.15 K, x1 = 0.257 | 1249.7 | 6.33
338.15 K, x1 = 0.319 | 1270 | 10.29
343.15 K, x1 = 0.026 | 1042.2 | 0.588
343.15 K, x1 = 0.049 | 1081.4 | 0.737
343.15 K, x1 = 0.068 | 1109.6 | 0.906
343.15 K, x1 = 0.086 | 1131.4 | 1.112
343.15 K, x1 = 0.119 | 1165.6 | 1.569
343.15 K, x1 = 0.156 | 1194 | 2.202
343.15 K, x1 = 0.185 | 1212.1 | 2.835
343.15 K, x1 = 0.214 | 1227.6 | 3.849
343.15 K, x1 = 0.257 | 1246.6 | 5.548
343.15 K, x1 = 0.319 | 1266.9 | 9.319
348.15 K, x1 = 0.026 | 1040.1 | 0.56
348.15 K, x1 = 0.049 | 1078.9 | 0.679
348.15 K, x1 = 0.068 | 1107 | 0.853
348.15 K, x1 = 0.086 | 1128.3 | 1.071
348.15 K, x1 = 0.119 | 1162.8 | 1.454
348.15 K, x1 = 0.156 | 1190.9 | 2.022
348.15 K, x1 = 0.185 | 1209.4 | 2.576
348.15 K, x1 = 0.214 | 1224.5 | 3.479
348.15 K, x1 = 0.257 | 1243.6 | 4.96
348.15 K, x1 = 0.319 | 1263.9 | 8.658

O [water] + CC[n+]1ccccc1.[Br-]
x2 = 0
Details | mass density [kg/m3] | viscosity [mPa·s]
298.15 K | – | 0.89
303.15 K | – | 0.797
308.15 K | – | 0.719
313.15 K | – | 0.653
318.15 K | 990.1 | 0.596
323.15 K | 987.9 | 0.547
328.15 K | 985.6 | 0.504
333.15 K | 983.2 | 0.466
338.15 K | 980.3 | 0.433
343.15 K | 978.1 | 0.404
348.15 K | 974.8 | 0.378
